Results reported in US20250145605A1, “CRYSTAL FORM AND SALT OF PHENOTHIAZINE COMPOUND, PREPARATION METHOD THEREFOR AND USE THEREOF” (CHENGDU HENGHAO INNOVATIVE SCIENCE AND TECHNOLOGY CO., LTD., priority 2022, published 2025).

Key:
[1] = test system: human neuroblastoma SH-SY5Y cells; assay: Inhibition of Erastin-induced ferroptosis, CCK8 cell viability test, SH-SY5Y; type: cell-based; settings: Erastin at a final concentration of 10 M, 24 h
Experimental: (§1) Experimental method: In this example, a screening model for ferroptosis was constructed to investigate a ferroptosis inhibitor. Specifically, the screening model for ferroptosis was mainly based on the CCK8 cell viability test. Firstly, mouse hippocampal neuronal cells HT22 and human neuroblastoma SH-SY5Y cells were cultured in a dish. 80 μL of cells (5000 cells/well) in logarithmic growth phase were seeded to a 96-well plate per well, and then cultured in an incubator at 37° C., 5% CO2 to allow adhesion of cells. After 24 h, 10 μL of the compound of the present disclosure at various concentrations prepared with the specified medium and 10 μL of Erastin (ferroptosis inducer) at a final concentration of […] were added. 3 replicate wells were set for each compound to ensure the accuracy of the results. A positive control group (10 μL of a certain concentration of the compound Ferrostain-1 and 10 μL of Erastin (ferroptosis inducer) prepared with the same medium were added with reference to the above description). […] The absorbance at 450 nm was detected by a microplate reader to calculate the inhibition rate of ferroptosis by the drug. […]
(§2) The inhibition rate change curve was fitted and the IC50 was calculated by the software GraphPadPrism6.

[2] = test system: mouse hippocampal neuronal cells HT22; assay: Inhibition of Erastin-induced ferroptosis, CCK8 cell viability test, HT22; type: cell-based; settings: 24 h
Experimental: as §1, §2

Row | SMILES | IC50 ([1]; Homo sapiens) [nM] | IC50 ([2]; Mus musculus, HT-22, HT22, Erastin at a final concentration of 10 µM) [nM] | IC50 [1] [nM] | IC50 ([2]; HT22, Erastin at a final concentration of 10 µM) [nM]
1 | CC(c1ccc(N2CCN(C)CC2)cc1)c1ccc2c(c1)Nc1ccccc1S2 (stereo not shown) | 1.41 | 2.87 |  | 
2 | CCOC(=O)c1ccc(NC2CCCCC2)c(N)c1 [Ferrostain-1] |  |  | 53.9 | 96.2
